Results from ChEMBL document CHEMBL5370591, “A Potent and Narrow-Spectrum Antibacterial against Clostridioides difficile Infection” (J Med Chem, 2023).
≈ marks a conversion by molar mass, not a printed value.

tested on: Clostridioides difficile; test: Antibacterial activity against Clostridium difficile ATCC 43255 measured after 48 hrs by two fold serial dilution method; assay type: functional

SMILES	MIC
FC(F)(F)Oc1ccc(-c2noc(-c3ccc4[nH]ccc4c3)n2)cc1	> 128 µg/mL
O=C(Nc1c[nH]nc1-c1nc(-c2ccc(Oc3ccc(C(F)(F)F)cc3)cc2)no1)c1ccccc1	> 128 µg/mL
Oc1ccc(-c2nc(-c3ccc4oc5ccccc5c4c3)no2)cc1	> 128 µg/mL
CCCCOc1ccc(-c2noc(-c3ccc(O)cc3)n2)cc1	> 128 µg/mL
O=C(Nc1c[nH]nc1-c1nc(-c2ccc(Oc3ccc(C(F)(F)F)cc3)cc2)no1)c1ccccn1	> 128 µg/mL
FC(F)(F)c1ccc(Oc2ccc(-c3noc(-c4c[nH]cn4)n3)cc2)cc1	8 µg/mL (≈ 21.5 µM)
FC(F)(F)c1ccc(Oc2ccc(-c3noc(-c4n[nH]cc4NC4CCCC4)n3)cc2)cc1	> 128 µg/mL
C#CCOc1ccc(-c2noc(-c3ccc(O)cc3)n2)cc1	128 µg/mL (≈ 438 µM)
Clc1ccc(N2CCN(c3noc(-c4ccc5[nH]ccc5c4)n3)CC2)cc1Cl	> 128 µg/mL
c1cc2cc(-c3nc(-c4ccc5c(c4)CCN5)no3)ccc2[nH]1	> 128 µg/mL
FC(F)(F)c1ccc(Oc2ccc(-c3noc(-c4n[nH]cc4Br)n3)cc2)cc1	> 128 µg/mL
CS(=O)(=O)Nc1ccc(-c2nc(-c3ccc(OC4CCCC4)cc3)no2)cc1	> 128 µg/mL
FC(F)(F)c1ccc(Oc2ccc(-c3noc(-c4n[nH]cc4I)n3)cc2)cc1	> 128 µg/mL
COc1cc(-c2nc(-c3ccc(Oc4ccc(C(F)(F)F)cc4)cc3)no2)cc(F)c1O	16 µg/mL (≈ 35.8 µM)
FC(F)(F)c1ccc(Oc2ccc(-c3noc(-c4cn[nH]n4)n3)cc2)cc1	> 128 µg/mL
CN1CCN(c2ccc(-c3noc(-c4ccc(O)cc4)n3)cc2)CC1	> 128 µg/mL
FC(F)(F)c1ccc(Oc2ccc(-c3noc(-c4ccc(Br)cc4)n3)cc2)cc1	> 128 µg/mL
Cl.O=[N+]([O-])c1c[nH]c(-c2nc(-c3ccc(OC4CCNCC4)cc3)no2)n1	> 128 µg/mL
Oc1ccc(-c2nc(-c3ccc(OC4CC4)cc3)no2)cc1	> 128 µg/mL
O=C1C[C@H](c2nc(-c3ccc(Oc4ccc(C(F)(F)F)cc4)cc3)no2)CN1	> 128 µg/mL
c1cc2cc(-c3nc(-c4ccc(OC5CCCC5)cc4)no3)ccc2[nH]1	8 µg/mL (≈ 23.2 µM)
Oc1ccc(-c2nc(-c3ccc(Oc4ccccc4)c(Br)c3)no2)cc1	> 128 µg/mL

SMILES	MIC
O=[N+]([O-])c1ccc(-c2nc(-c3ccc(OC4CCCC4)cc3)no2)cc1	> 128 µg/mL
Cl.NCCCCc1nc(-c2ccc(OC3CCCC3)cc2)no1	128 µg/mL
FC(F)(F)c1ccc(Oc2ccc(-c3noc(-c4ccncc4)n3)cc2)cc1	> 128 µg/mL
Oc1ccc(-c2nc(-c3ccc(OC4CCOC4)cc3)no2)cc1 (stereo not drawn)	> 128 µg/mL
Oc1ccc(-c2nc(-c3ccc(Oc4ccc(C(F)(F)F)cc4)nc3)no2)cc1	> 128 µg/mL
Oc1ccc(-c2nnc(-c3ccc(OC4CCCC4)cc3)o2)cc1	> 128 µg/mL
COc1ccc2oc3ccc(-c4noc(-c5n[nH]cc5[N+](=O)[O-])n4)cc3c2c1	64 µg/mL (≈ 170 µM)
Cl.Nc1nc(-c2ccc(OC3CCCC3)cc2)no1	> 128 µg/mL
Oc1ccc(/C=C/c2nc(-c3ccc(OC4CCCC4)cc3)no2)cc1	64 µg/mL (≈ 184 µM)
CCCCNc1c[nH]nc1-c1nc(-c2ccc(Oc3ccc(C(F)(F)F)cc3)cc2)no1	> 128 µg/mL
c1nc2cc(-c3nc(-c4ccc(OC5CCCC5)cc4)no3)ccc2[nH]1	128 µg/mL (≈ 370 µM)
Oc1ccc(-c2nc(-c3ccc(C(O)C(F)(F)F)cc3)no2)cc1 (stereo not drawn)	32 µg/mL (≈ 95.2 µM)
Nc1cc(-c2noc(-c3ccc(O)cc3)n2)ccc1Oc1ccccc1	> 128 µg/mL
O=C1C[C@@H](c2nc(-c3ccc(Oc4ccc(C(F)(F)F)cc4)cc3)no2)CN1	> 128 µg/mL
FC(F)(F)c1ccc(Oc2ccc(-c3noc(-c4n[nH]cc4NC4CCCCC4)n3)cc2)cc1	> 128 µg/mL
O=C(O)c1ccc(-c2nc(-c3ccc(OC4CCCC4)cc3)no2)cc1	> 128 µg/mL
Clc1nc(-c2ccc(OC3CCCC3)cc2)no1	> 128 µg/mL
Nc1cc(Oc2ccccc2)ccc1-c1noc(-c2ccc(O)cc2)n1	> 128 µg/mL
COc1ccc(-c2noc(-c3ccc(O)cc3)n2)cc1	> 128 µg/mL
Clc1cccc(N2CCN(c3noc(-c4ccc5[nH]ccc5c4)n3)CC2)c1	> 128 µg/mL
Oc1ccc(-c2nc(N3CCN(c4cccc(Cl)c4)CC3)no2)cc1	> 128 µg/mL
